From ChEMBL document CHEMBL2440095, “Synthesis and activity of novel tetrazole compounds and their pyrazole-4-carbonitrile precursors against Leishmania spp” (Bioorg Med Chem Lett, 2013)

How the values were obtained:
Leishmania amazonensis = test: Antipromastigote activity against Leishmania amazonensis MHOM/BR/77/LTB0016 after 24 hrs by MTT assay; type: functional, organism-based; settings: MHOM/BR/77/LTB0016, 24 h
[1] = Cytotoxicity against mouse RAW264.7 cells after 24 hrs by MTT assay; type: cell-based
Leishmania braziliensis = test: Antipromastigote activity against Leishmania braziliensis MCAN/BR/98/R619 after 24 hrs by MTT assay; type: functional, organism-based; settings: MCAN/BR/98/R619, 24 h

N=C(N)c1ccc(OCCCCCOc2ccc(C(=N)N)cc2)cc1 [PENTAMIDINE]
IC50 (Leishmania amazonensis): 3.38 µM | CC50 at 24 h [1]: 25.5 µM | IC50 (Leishmania braziliensis): 13 µM
